Data on 65 compounds can be found in the OPERA property sets (Mansouri et al. 2018).

Converted amounts (≈) assume the structure as drawn.

Conditions in the first data set: not given
As usually defined, the logP is a log measure of how a compound divides between an organic and an aqueous phase. Higher therefore signals higher lipophilicity. Regarding `CCC1(C)CC(=O)NC1=O` (stereo not drawn), the logP is 0.38.
Take `CNC(=O)CCC(=O)c1cccnc1`: the log partition coefficient (logP) was -0.69.
Compound `CCCCN(C)C(=O)Nc1ccc(Cl)c(Cl)c1` displayed a logP of 4.1.
The same measure, in the same setting: the figure for `c1ccc2c(c1)Cc1cc3ccccc3cc1-2` is 5.77.
With `CC[N+](CC)(CC)CC.[Cl-]`, the logP is -3.15.
Still for that read-out and setting: the figure for `BrC=C(Br)Br` is 3.2; for `CSc1nc2ccccc2s1` it is 3.15; for `CC(C)OC(=O)c1cc(=O)[nH]c(=O)[nH]1` it is 0.81.
In the case of `CCCCCCCC`, the lipophilicity (logP) was 5.18.
Broadly, the solubility is the dissolved amount per volume that the medium holds. In turn, `CC(C)c1ccc2c(c1)CC[C@H]1[C@](C)(C(=O)O)CCC[C@]21C` returned a logP of 4.8 and a solubility of 22 µM (≈ 6.6 µg/mL).
Regarding `CC(=O)N[C@@H](Cc1ccc(O)cc1)C(=O)O`, the logP came out at 1.32.
Compound `O=C(O)CCCCn1nc2ccccc2n1` yielded a logP of 0.94.
On to `O=C(NCc1ccc(O)cc1)C(=O)c1c[nH]c2ccc([N+](=O)[O-])cc12`, for which the logP was determined as 2.67.
As for `Cc1cc(Cl)ccc1OCC(=O)OCCCCCC(C)C`, the logP is 6.7.
`NC(=O)c1ccccc1NCCCO` came in with a logP of 0.7.
`CCCN1CCOC2c3cccc(O)c3CCC21` (stereo not drawn) came in with a logP of 2.22.
Still for that read-out and setting: the figure for `CCCCOC(=O)c1ccccc1O` is 4.63; for `c1ccc2c(c1)ccc1nc3ccc4ccccc4c3cc12` it is 5.63.

Still in this data set, the particulars now being: 20 °C.
For the compound `CCNc1nc(NCC)nc(OC)n1`, the solubility came out at 16200 µM (≈ 3200 µg/mL).
As for `CCOC(C)(C)CC`, the solubility is 3440 µM (≈ 400 µg/mL).
Still for that read-out and setting: the same measure for `CCC(CC)C(=O)O`: 155000 µM (≈ 18000 µg/mL); for `COCCO[Si](CCCl)(OCCOC)OCCOC`: 78900 µM (≈ 25000 µg/mL).

Still in this data set, the particulars now being: 23.0 °C.
As to `CCC/C=C/C=O`, the log10 OH rate constant (cm³/molecule/s) is -10.4.
Turning to `CC1=CC[C@@H]2[C@H]3[C@@H](C(C)C)CC[C@]2(C)[C@@H]13`, the log10 OH rate constant (cm³/molecule/s) was -10.
As for `CC1=CC[C@@]23CC1C(C)(C)[C@@H]2CC[C@H]3C`, the log10 OH rate constant (cm³/molecule/s) is -10.2.

The same data set, now with this note: 24 °C.
`CCCCN(C)N=O` had a solubility of 200000 µM (≈ 23200 µg/mL). This lies in the millimolar range.

Staying with this data set, now noted: 24.0 °C.
As for `C[Si](C)(C)O[Si](C)(C)C`, the log10 OH rate constant (cm³/molecule/s) was -11.9.

The data set is the same for the next values; noted with them: 25 °C.
As to `ClC1=C(Cl)C(Cl)(Cl)C(Cl)=C1Cl`, the solubility worked out at 6.6 µM (≈ 1.8 µg/mL).
As for `Cc1cc(C)c(C)c(O)c1`, the solubility came to 5590 µM (≈ 762 µg/mL).
With `C[Si](C)(C)O[Si](C)(C)O[Si](C)(C)C`, the solubility is 0.144 µM (≈ 0.034 µg/mL).
Regarding `Nc1ccc2c(c1)C(=O)c1ccccc1C2=O`, the solubility came out at 0.73 µM (≈ 0.163 µg/mL).
`Cc1ccc2c(c1N)C(=O)c1ccccc1C2=O` returned a solubility of 1.4 µM (≈ 0.332 µg/mL).
`Cc1ccc(C)cc1` showed a solubility of 1530 µM (≈ 162 µg/mL).
Still for that read-out and setting: the figure for `Nc1ccc(Cl)cc1` is 30600 µM (≈ 3900 µg/mL); for `O=[N+]([O-])c1ccc(Nc2ccc(O)cc2)c([N+](=O)[O-])c1` it is 3.6 µM (≈ 0.99 µg/mL).
The compound `CCCCCCCCOC(=O)c1ccccc1C(=O)OCCCCCCCC` returned a solubility of 0.0563 µM (≈ 0.022 µg/mL). This solubility lies about 64-fold lower than the previous one.
`CCC(Cl)CC` gave a solubility of 2340 µM (≈ 249 µg/mL).
Same read-out and setting: the figure for `COc1c(Cl)ccc(Cl)c1C(=O)O` is 27700 µM (≈ 6120 µg/mL); for `c1ccc2c(c1)[nH]c1ccccc12` it is 10.8 µM (≈ 1.8 µg/mL); for `O=[N+]([O-])c1ccc(F)cc1O` it is 8910 µM (≈ 1400 µg/mL).
On the same count and under the same terms, the figure for `COC(=O)c1ccccc1C(=O)OC` is 20600 µM (≈ 4000 µg/mL); for `CCCCOP(=O)(OCCCC)Oc1ccccc1` it is 335 µM (≈ 96 µg/mL); for `CC1(C)[C@H]2CC[C@](C)(C2)[C@H]1O` it is 5370 µM (≈ 828 µg/mL).
Turning to `C[Si](C)(C)O[Si](C)(C)O[Si](C)(C)O[Si](C)(C)C`, the solubility is 0.0217 µM (≈ 0.00674 µg/mL).
Consider `C[Si](C)(C)O[Si](C)(C)C`, for which the solubility turned out to be 5.73 µM (≈ 0.93 µg/mL).
For the compound `Cc1cccc(C)c1N`, the solubility was found to be 68000 µM (≈ 8240 µg/mL).
As to `c1ccc2c(c1)-c1cccc3cccc-2c13`, the solubility worked out at 1.14 µM (≈ 0.231 µg/mL). This solubility lies about 60000-fold lower than the previous one.
`c1ccc2nc(-c3ccc4ccccc4n3)ccc2c1`: the solubility stood at 3.98 µM (≈ 1.02 µg/mL).

The data set is the same for the next values; noted with them: 25.0 °C.
For `COC(F)(F)C(F)(F)F`, the log10 OH rate constant (cm³/molecule/s) is -13.9.
Still for that read-out and setting: the same measure for `CC(=O)CCC(C)C`: -11.
In the case of `c1ccc2c(c1)Oc1ccccc1O2`, the log10 OH rate constant (cm³/molecule/s) was -10.9.
`ClCCCCl`: the log10 OH rate constant (cm³/molecule/s) is -12.1.
Regarding `FCOC(C(F)(F)F)C(F)(F)F`, the log10 OH rate constant (cm³/molecule/s) is -13.1.
For the compound `O=CC(Cl)Cl`, the log10 OH rate constant (cm³/molecule/s) was -11.6.
As for `O=CC(F)Cl` (stereo not drawn), the log10 OH rate constant (cm³/molecule/s) was -11.7.
With `COc1ccc([N+](=O)[O-])cc1`, the log10 OH rate constant (cm³/molecule/s) is -11.6.
The same measure, in the same setting: the same measure for `COCC(C)O` (stereo not drawn): -10.7; for `c1ccc2c(c1)-c1cccc3cccc-2c13`: -10.3.
In the case of `FC(F)OC(C(F)(F)F)C(F)(F)F`, the log10 OH rate constant (cm³/molecule/s) is -13.1.
With `OCC(F)(F)C(F)(F)F`, the log10 OH rate constant (cm³/molecule/s) is -13.

Still in this data set, the particulars now being: 27 °C.
Consider `NCCc1c[nH]c2ccc(O)cc12`, for which the solubility was 114000 µM (≈ 20000 µg/mL).

The same data set, now with this note: 27.0 °C.
On to `CNC(C)=O`, for which the log10 OH rate constant (cm³/molecule/s) was -11.3.
Consider `CCC(=O)NC`, for which the log10 OH rate constant (cm³/molecule/s) is -11.1.
On to `CCc1ccco1`, for which the log10 OH rate constant (cm³/molecule/s) is -9.97.
Consider `O=Cc1ccoc1`, for which the log10 OH rate constant (cm³/molecule/s) is -10.3.

Still in this data set, the particulars now being: 30 °C.
For `COc1ccccc1[N+](=O)[O-]`, the solubility turned out to be 11000 µM (≈ 1690 µg/mL).
Turning to `Ic1ccccc1`, the solubility amounted to 1670 µM (≈ 340 µg/mL).
